Test results as given in ChEMBL document CHEMBL5579815, “Novel angiogenesis inhibitors with superoxide anion radical amplification effect: Surmounting the Achilles' heels of angiogenesis inhibitors and photosensitizers” (Eur J Med Chem, 2024).
The source made the active and inactive calls. No cut-off for these calls is given here.

Key:
[1] = system: SK-MEL-28; assay: (§1) Induction of apoptosis in human SK-MEL-28 cells assessed as viable cells at 1 uM preincubated for 24 hrs under normoxic condition followed by media removal and irradiated with 650 nm 10 mW/cm2 light for 15 mins under normoxic condition by Annexin V-FITC/propidium iodide staining based flow cytometry (reference value: 93.62%); format: functional; conditions: SK-MEL-28, light or radiation study, read-out: Activity
[2] = system: SK-MEL-28; assay: as §1, with “late apoptotic” for “viable”, “1.95%)” for “93.62%)”; format: functional
[3] = system: SK-MEL-28; assay: Cytotoxicity against human SK-MEL-28 cells assessed as reduction in cell viability preincubated for 24 hrs under normoxic condition followed by media removal and irradiated with 650 nm 10 mW/cm2 light for 15 mins under normoxic condition prior to media replacement and measured after 24 hrs by MTT assay; format: functional, cell-based; conditions: SK-MEL-28, light or radiation study
[4] = system: SK-MEL-28; assay: as §1, with “as late apoptotic” for “as viable”, “at 2” for “at 1”, “value: 1.95%)” for “value: 93.62%)”; format: functional
[5] = system: SK-MEL-28; assay: as §1, with “as late apoptotic” for “as viable”, “at 0.5” for “at 1”, “under hypoxic” for “under normoxic”, “value: 1.95%)” for “value: 93.62%)”; format: functional
[6] = Drug uptake in human EA.hy 926 cells at 1 uM measured after 24 hrs by flow cytometry; format: ADME, cell-based; conditions: ea.hy 926, 24 h
[7] = system: SK-MEL-28; assay: Induction of apoptosis in human SK-MEL-28 cells preincubated for 24 hrs under hypoxic condition followed by media removal and irradiated with 650 nm 10 mW/cm2 light for 15 mins under hypoxic condition by Annexin V-FITC/propidium iodide staining based flow cytometry; format: functional, cell-based; conditions: dose 0.5-2 µM
[8] = system: SK-MEL-28; assay: as §1, with “as early apoptotic” for “as viable”, “at 2” for “at 1”, “value: 1.8%)” for “value: 93.62%)”; format: functional
[9] = system: SK-MEL-28; assay: as §1, with “at 0.5” for “at 1”; format: functional; conditions: SK-MEL-28, light or radiation study, read-out: Activity
[10] = system: SK-MEL-28; assay: as §1, with “as necrotic” for “as viable”, “at 2” for “at 1”, “under hypoxic” for “under normoxic”, “value: 2.63%)” for “value: 93.62%)”; format: functional
[11] = system: SK-MEL-28; assay: as §1, with “hypoxic” for “normoxic”; format: functional; conditions: SK-MEL-28, light or radiation study, read-out: Activity
[12] = Induction of ROS generation in methanol solution assessed as reduction in DPBF absorption peak at 10 uM irradiated with 650 nm 10 mW/cm2 light for upto 9 mins by DPBF probe based UV-vis absorption spectra analysis; format: functional

`CCN(CC)c1ccc2nc3c4ccccc4/c(=N\CCCCCCNC(=O)c4cc(Oc5ccc(NC(=O)Nc6ccc(Cl)c(C(F)(F)F)c6)cc5)ccn4)cc-3sc2c1` gave a viability at 1 µM [1] of 64.6%, an Activity [2] of 8.8% and an IC50 [3] of 100 nM. The Activity [4] was 26.72%, the Activity [5] was 7.05% and the Drug uptake [6] was “Active”. The Activity [7] was “Dose-Dependent Effect”, the Activity [8] was 39.5% and the viability at 0.5 µM [9] was 73.2%. The Activity [10] was 18.77%, the viability at 1 µM [11] was 69% and the Activity [12] was “Active”.
